In patent publication US20210355104A1, “ADENOSINE RECEPTOR BINDING COMPOUNDS” (Nikang Therapeuticsm Inc., priority 2018, published 2021):
Where “and” joins values, the source holds several entries; their conditions need not be identical. Identical values can stand only once.

Target: Adenosine A2A receptor (Homo sapiens, UniProt P29274)
Experiment: cAMP assay in 293A cells stably expressing the adenosine A2A receptor (CGS21680 stimulation, HTRF)
Format: cell-based
Design: expressed in transfected cells; host or cells: 293A cells (Invitrogen, Cat# R705-07) infected with A2A-expressing lentivirus (custom packaged by Biosettia), puromycin selected
Settings: 293A-A2AR cells, 0.1% BSA, 1 uM CGS; read-out: cAMP (nM) 0.1% BSA, 1 uM CGS
Method: A 293A cell line (Invitrogen, Cat# R705-07) stably expressing the adenosine A2A receptor was generated in house. Briefly, 293A cells were seeded in 6-well plate and infected with A2A expressing lentivirus (custom packaged by Biosettia) and selected with puromycin (1 ug/ml). Cells survived selection were confirmed for A2A expression by RT-qPCR (RT Reagent: High-Capacity cDNA Reverse Transcription Kit, Applied Biosystems/Thermo Fisher Cat# 4368814, qPCR reagent: SYBR™ Green Master Mix, Applied Biosystems/Thermo Fisher Cat# 4309155). The cells were maintained in DMEM/F12 medium containing 10% FBS, 100 units/ml Penicillin, 100 μg/ml Streptomycin, and 1 μg/ml puromycin at 37° C., 5% CO2. 293A-A2AR cells were harvested on the day of assay and resuspended at 0.6 million cells/ml in DMEM/F12 with 0.1% BSA and 30 U/ml denosine deaminase(Roche, Cat #: 10102121001). Serial dilutions of compounds were prepared in DMEM/F12 with 0.1% BSA to a DMSO concentration of 0.6%. After 4 μl of compound dilutions were added, 4 μl suspended cells were dispensed into low-volume white 384-well plates (Greiner Bio-One). […] The assay plate was then incubated at room temperature for 30 min. 3 μl of d2 conjugated cAMP and 3 μl cryptate conjugated anti-cAMP antibody were then added. D2 conjugated cAMP and cryptate conjugated anti-cAMP antibody (Cisbio, Cat #: 62AM6PEC) were both prepared in cell lysis buffer according to the manufacturer's instruction. After 1 h incubation at room temperature, plates were read in CIARIOstar plate reader (BMG Labtech) using the HTRF detection mode.

Chain of Adenosine A2A receptor (P29274 whole entry): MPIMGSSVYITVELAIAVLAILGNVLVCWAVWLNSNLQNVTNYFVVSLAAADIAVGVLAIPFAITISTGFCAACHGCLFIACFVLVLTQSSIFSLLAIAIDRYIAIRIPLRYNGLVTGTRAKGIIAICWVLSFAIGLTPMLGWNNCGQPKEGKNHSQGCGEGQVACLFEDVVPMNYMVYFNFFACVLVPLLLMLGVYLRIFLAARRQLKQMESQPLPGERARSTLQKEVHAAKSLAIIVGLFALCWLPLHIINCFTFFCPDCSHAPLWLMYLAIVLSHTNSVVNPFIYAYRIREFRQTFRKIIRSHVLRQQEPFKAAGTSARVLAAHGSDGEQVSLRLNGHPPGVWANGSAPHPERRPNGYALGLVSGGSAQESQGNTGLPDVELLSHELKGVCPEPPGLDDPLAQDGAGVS

| SMILES | IC50 |
| --- | --- |
| Cc1cc(-c2c(-c3ccc(F)cc3)nc(N)nc2-c2cn(Cc3cccc(C(C)(C)O)n3)nn2)cc(C(F)F)n1 [Example 298, 2-(6-((4-(2-amino-5-(2-(difluoromethyl)-6-methylpyridin-4-yl)-6-(4-fluorophenyl)pyrimidin-4-yl)-1H-1,2,3-triazol-1-yl)methyl)pyridin-2-yl)propan-2-ol] | > 10000 nM |
| CCc1nn(CC(C)(C)C(=O)O)nc1COc1nc(N)nc(-c2ccc(F)cc2)c1-c1cc(C)nc(C(F)F)c1 [Example 300, 3-(4-(((2-amino-5-(2-(difluoromethyl)-6-methylpyridin-4-yl)-6-(4-fluorophenyl)pyrimidin-4-yl)oxy)methyl)-5-ethyl-2H-1,2,3-triazol-2-yl)-2,2-dimethylpropanoic acid] | > 10000 nM |
| CCc1nnn(CC(C)(C)C(=O)O)c1COc1nc(N)nc(-c2ccc(F)cc2)c1-c1cc(C)nc(C(F)F)c1 [Example 301, 3-(5-(((2-amino-5-(2-(difluoromethyl)-6-methylpyridin-4-yl)-6-(4-fluorophenyl)pyrimidin-4-yl)oxy)methyl)-4-ethyl-1H-1,2,3-triazol-1-yl)-2,2-dimethylpropanoic acid] | > 10000 nM |
| CCc1c(COc2nc(N)nc(-c3ccc(F)cc3)c2-c2cc(C)nc(C(F)F)c2)nnn1CC(C)(C)C(=O)O [Example 302, 3-(4-(((2-amino-5-(2-(difluoromethyl)-6-methylpyridin-4-yl)-6-(4-fluorophenyl)pyrimidin-4-yl)oxy)methyl)-5-ethyl-1H-1,2,3-triazol-1-yl)-2,2-dimethylpropanoic acid] | > 10000 nM |
| Cc1cc(-c2c(OCc3ccnc(N(C)C)n3)nc(N)nc2-c2ccc(F)cc2)cc(C(F)F)n1 [Example 307, 4-(((2-amino-5-(2-(difluoromethyl)-6-methylpyridin-4-yl)-6-(4-fluorophenyl)pyrimidin-4-yl)oxy)methyl)-N,N-dimethylpyrimidin-2-amine] | 211 nM and 246 nM |
| Cc1cc(-c2c(OCc3ccnc(C(C)(C)O)n3)nc(N)nc2-c2ccc(F)cc2)cc(C(F)F)n1 [Example 308] | 164 nM and 197 nM and 159 nM and 113 nM |
| Cc1cc(-c2c(OCc3cccc(N4CCC[C@H]4C(=O)O)n3)nc(N)nc2-c2ccc(F)cc2)cc(C(F)F)n1 [Example 311, (6-(((2-amino-5-(2-(difluoromethyl)-6-methylpyridin-4-yl)-6-(4-fluorophenyl)pyrimidin-4-yl)oxy)methyl)pyridin-2-yl)-L-proline] | > 10000 nM |
| Cc1cc(-c2c(-c3cn(Cc4cccc(C(C)(C)O)n4)nn3)nc(N)nc2-c2cccc(C#N)c2C)cc(C(F)F)n1 [Example 312, 3-(2-amino-5-(2-(difluoromethyl)-6-methylpyridin-4-yl)-6-(1-((6-(2-hydroxypropan-2-yl)pyridin-2-yl)methyl)-1H-1,2,3-triazol-4-yl)pyrimidin-4-yl)-2-methylbenzonitrile] | 16600 nM |
| Cc1cc(-c2c(OCc3cc4ccccc4n3C)nc(N)nc2-c2ccc(F)cc2)cc(C(F)F)n1 [Example 319, 5-(2-(difluoromethyl)-6-methylpyridin-4-yl)-4-(4-fluorophenyl)-6-((1-methyl-1H-indol-2-yl)methoxy)pyrimidin-2-amine] | 209 nM and 256 nM |
| Cc1cc(-c2c(OCC3CC(C(=O)O)C3)nc(N)nc2-c2ccc(F)cc2)cc(C(F)F)n1 (stereo not drawn) [Example 325, 3-(((2-amino-5-(2-(difluoromethyl)-6-methylpyridin-4-yl)-6-(4-fluorophenyl)pyrimidin-4-yl)oxy)methyl)cyclobutane-1-carboxylic acid] | > 25000 nM |

Results, then the compound that gave them:

| IC50 | SMILES |
| --- | --- |
| 3630 nM | Cc1cc(-c2c(OCc3cccc(C(C)(C)OCC(=O)O)n3)nc(N)nc2-c2ccc(F)cc2)cc(C(F)F)n1 [Example 296, 2-((2-(6-(((2-amino-5-(2-(difluoromethyl)-6-methylpyridin-4-yl)-6-(4-fluorophenyl)pyrimidin-4-yl)oxy)methyl)pyridin-2-yl)propan-2-yl)oxy)acetic acid] |
| 1110 nM | Cc1cc(-c2c(OCCc3cccnc3)nc(N)nc2-c2ccc(F)cc2)cc(C(F)F)n1 [Example 299, 5-(2-(difluoromethyl)-6-methylpyridin-4-yl)-4-(4-fluorophenyl)-6-(2-(pyridin-3-yl)ethoxy)pyrimidin-2-amine] |
| 965 nM | Cc1cc(-c2c(OCc3cccc(C(O)CO)n3)nc(N)nc2-c2ccc(F)cc2)cc(C(F)F)n1 (stereo not drawn) [Example 303, 1-(6-(((2-amino-5-(2-(difluoromethyl)-6-methylpyridin-4-yl)-6-(4-fluorophenyl)pyrimidin-4-yl)oxy)methyl)pyridin-2-yl)ethane-1,2-diol] |
| 681 nM | Cc1cc(-c2c(OCCOc3cccc(CO)n3)nc(N)nc2-c2ccc(F)cc2)cc(C(F)F)n1 [Example 304, (6-(2-((2-amino-5-(2-(difluoromethyl)-6-methylpyridin-4-yl)-6-(4-fluorophenyl)pyrimidin-4-yl)oxy)ethoxy)pyridin-2-yl)methanol] |
| 1370 nM | Cc1cc(-c2c(OCc3cccc(N4CC[C@H](C(=O)O)C4)n3)nc(N)nc2-c2ccc(F)cc2)cc(C(F)F)n1 [Example 309, (S)-1-(6-(((2-amino-5-(2-(difluoromethyl)-6-methylpyridin-4-yl)-6-(4-fluorophenyl)pyrimidin-4-yl)oxy)methyl)pyridin-2-yl)pyrrolidine-3-carboxylic acid] |
| 2490 nM | Cc1cc(-c2c(OCc3cccc(N4CC[C@@H](C(=O)O)C4)n3)nc(N)nc2-c2ccc(F)cc2)cc(C(F)F)n1 [Example 310, (R)-1-(6-(((2-amino-5-(2-(difluoromethyl)-6-methylpyridin-4-yl)-6-(4-fluorophenyl)pyrimidin-4-yl)oxy)methyl)pyridin-2-yl)pyrrolidine-3-carboxylic acid] |
| 1080 nM | CCc1nn(C[C@H](O)CO)nc1COc1nc(N)nc(-c2ccc(F)cc2)c1-c1cc(C)nc(C(F)F)c1 [Example 316, (S)-3-(4-(((2-amino-5-(2-(difluoromethyl)-6-methylpyridin-4-yl)-6-(4-fluorophenyl)pyrimidin-4-yl)oxy)methyl)-5-ethyl-2H-1,2,3-triazol-2-yl)propane-1,2-diol] |
| 1430 nM | CCc1c(COc2nc(N)nc(-c3ccc(F)cc3)c2-c2cc(C)nc(C(F)F)c2)nnn1C[C@H](O)CO [Example 317, (S)-3-(4-(((2-amino-5-(2-(difluoromethyl)-6-methylpyridin-4-yl)-6-(4-fluorophenyl)pyrimidin-4-yl)oxy)methyl)-5-ethyl-1H-1,2,3-triazol-1-yl)propane-1,2-diol] |
| 1350 nM | CCc1nnn(C[C@H](O)CO)c1COc1nc(N)nc(-c2ccc(F)cc2)c1-c1cc(C)nc(C(F)F)c1 [Example 318, (S)-3-(5-(((2-amino-5-(2-(difluoromethyl)-6-methylpyridin-4-yl)-6-(4-fluorophenyl)pyrimidin-4-yl)oxy)methyl)-4-ethyl-1H-1,2,3-triazol-1-yl)propane-1,2-diol] |
| 2290 nM | CCc1nn(CC(O)COC)nc1COc1nc(N)nc(-c2ccc(F)cc2)c1-c1cc(C)nc(C(F)F)c1 (stereo not drawn) [Example 321, 1-(4-(((2-amino-5-(2-(difluoromethyl)-6-methylpyridin-4-yl)-6-(4-fluorophenyl)pyrimidin-4-yl)oxy)methyl)-5-ethyl-2H-1,2,3-triazol-2-yl)-3-methoxypropan-2-ol] |
| 2470 nM | CCc1nnn(CC(O)COC)c1COc1nc(N)nc(-c2ccc(F)cc2)c1-c1cc(C)nc(C(F)F)c1 (stereo not drawn) [Example 322, 1-(5-(((2-amino-5-(2-(difluoromethyl)-6-methylpyridin-4-yl)-6-(4-fluorophenyl)pyrimidin-4-yl)oxy)methyl)-4-ethyl-1H-1,2,3-triazol-1-yl)-3-methoxypropan-2-ol] |
| 1680 nM | CCc1c(COc2nc(N)nc(-c3ccc(F)cc3)c2-c2cc(C)nc(C(F)F)c2)nnn1CC(O)COC (stereo not drawn) [Example 323, 1-(4-(((2-amino-5-(2-(difluoromethyl)-6-methylpyridin-4-yl)-6-(4-fluorophenyl)pyrimidin-4-yl)oxy)methyl)-5-ethyl-1H-1,2,3-triazol-1-yl)-3-methoxypropan-2-ol] |
| 2080 nM | CCc1nn(CC(C)(C)C#N)nc1COc1nc(N)nc(-c2ccc(F)cc2)c1-c1cc(C)nc(C(F)F)c1 [Example 324, 3-(4-(((2-amino-5-(2-(difluoromethyl)-6-methylpyridin-4-yl)-6-(4-fluorophenyl)pyrimidin-4-yl)oxy)methyl)-5-ethyl-2H-1,2,3-triazol-2-yl)-2,2-dimethylpropanenitrile] |
| 4390 nM | Cc1cc(-c2c(OCc3cccc(N(C)CC(=O)O)n3)nc(N)nc2-c2ccc(F)cc2)cc(C(F)F)n1 [Example 327, N-(6-(((2-amino-5-(2-(difluoromethyl)-6-methylpyridin-4-yl)-6-(4-fluorophenyl)pyrimidin-4-yl)oxy)methyl)pyridin-2-yl)-N-methylglycine] |
